Measurements reported in patent US11254668B2, “Pyrazolo[1,5-A]pyrazin-4-yl and related derivatives” (Pfizer Inc., priority 2017, dated 2022).
Like-named read-outs stand apart in the source and are kept apart here.

Legend:
Assay type in all cases: biochemical
[1] = target: TYK2 (Homo sapiens (Human), UniProt P29597); test: JAK Caliper Enzyme Assay at 1 mM ATP, TYK2
Outline: (§1)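 First, compound was incubated at room temperature with recombinant human kinase domain, a synthetic peptide and 1 mM ATP until 20–30% of peptide was phosphorylated. Next, EDTA stopped the reaction. Finally, electrophoretic separation quantified product, and percent effect relative to controls was plotted against concentration.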

[2] = target: JAK1 (Homo sapiens (Human), UniProt P23458); test: JAK Caliper Enzyme Assay at 1 mM ATP, JAK1
Chain of JAK1 (P23458 875-1153): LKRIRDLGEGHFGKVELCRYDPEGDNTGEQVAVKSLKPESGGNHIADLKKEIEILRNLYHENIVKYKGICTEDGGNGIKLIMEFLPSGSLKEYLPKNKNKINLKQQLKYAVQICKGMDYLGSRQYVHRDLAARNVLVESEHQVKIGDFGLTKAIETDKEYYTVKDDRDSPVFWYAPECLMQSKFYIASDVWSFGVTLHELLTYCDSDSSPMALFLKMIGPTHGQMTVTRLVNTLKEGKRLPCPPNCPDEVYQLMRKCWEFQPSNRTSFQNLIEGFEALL
Outline: (§2)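 Recombinant human kinase domains phosphorylate a fluorescent synthetic peptide at 1 mM ATP, room temperature, with enzyme and time tuned for 20-30% conversion; EDTA-stopped. Product/substrate separated by microfluidic mobility shift; percent effect versus DMSO and positive controls fitted to IC50 (nM).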

[3] = target: JAK2 (Homo sapiens (Human), UniProt O60674); test: JAK Caliper Enzyme Assay at 1 mM ATP, JAK2
Chain of JAK2 (O60674 849-1124): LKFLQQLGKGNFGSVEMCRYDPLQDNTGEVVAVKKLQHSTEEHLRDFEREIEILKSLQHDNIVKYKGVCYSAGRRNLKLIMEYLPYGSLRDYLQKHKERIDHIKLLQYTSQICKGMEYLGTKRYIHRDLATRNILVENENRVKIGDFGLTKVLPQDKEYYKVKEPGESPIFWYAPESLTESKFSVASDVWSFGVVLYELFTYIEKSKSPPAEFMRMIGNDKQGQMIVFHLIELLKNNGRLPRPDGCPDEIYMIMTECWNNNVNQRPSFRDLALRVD
Outline: as §1

[4] = target: JAK3 (Homo sapiens (Human), UniProt P52333); test: JAK Caliper Enzyme Assay at 1 mM ATP, JAK3
Chain of JAK3 (P52333 822-1111): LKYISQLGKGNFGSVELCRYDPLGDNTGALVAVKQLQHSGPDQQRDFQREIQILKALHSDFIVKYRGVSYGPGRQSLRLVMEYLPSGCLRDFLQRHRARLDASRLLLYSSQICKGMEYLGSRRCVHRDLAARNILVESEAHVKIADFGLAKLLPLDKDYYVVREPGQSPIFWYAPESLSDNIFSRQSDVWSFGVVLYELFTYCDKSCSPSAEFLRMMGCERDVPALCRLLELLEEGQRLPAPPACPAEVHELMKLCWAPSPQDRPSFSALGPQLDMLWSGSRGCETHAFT
Outline: as §2

Chain of TYK2 (P29597 897-1176): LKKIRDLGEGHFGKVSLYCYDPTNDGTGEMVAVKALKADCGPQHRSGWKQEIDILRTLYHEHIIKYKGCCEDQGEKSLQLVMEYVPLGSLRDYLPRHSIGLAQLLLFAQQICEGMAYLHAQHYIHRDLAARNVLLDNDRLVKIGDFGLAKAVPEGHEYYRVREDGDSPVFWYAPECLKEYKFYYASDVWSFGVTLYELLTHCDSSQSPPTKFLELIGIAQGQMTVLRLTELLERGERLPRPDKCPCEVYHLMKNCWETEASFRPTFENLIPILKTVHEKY

IC50 [1] | IC50 [2] | IC50 [3] | IC50 [4] | IC50 ([1]; JAK Caliper enzyme assay) | IC50 ([2]; JAK Caliper enzyme assay) | IC50 ([3]; JAK Caliper enzyme assay) | IC50 ([4]; JAK Caliper enzyme assay) | Structure (SMILES)
39 nM | 521 nM | 123 nM | > 10000 nM |  |  |  |  | Cn1nc(CO)cc1-c1cc2ncccc2c(-c2ccn([C@]3(CC#N)C[C@H](C#N)C3)n2)n1 [Example 61, cis-3-(cyanomethyl)-3-(3-{7-[3-(hydroxymethyl)-1-methyl-1H-pyrazol-5-yl]-1,6-naphthyridin-5-yl}-1H-pyrazol-1-yl)cyclobutanecarbonitrile]
120 nM | 3790 nM | 1390 nM | > 10000 nM |  |  |  |  | Cc1cc(-c2nc(-c3cn[nH]c3)cc3ncccc23)nn1C1(CC#N)CN(S(C)(=O)=O)C1 [Example 272, [3-{5-methyl-3-[7-(1H-pyrazol-4-yl)-1,6-naphthyridin-5-yl]-1H-pyrazol-1-yl}-1-(methylsulfonyl)azetidin-3-yl]acetonitrile]
27 nM | 608 nM | 388 nM | > 10000 nM |  |  |  |  | N#CCC1(n2ccc(-c3nc(-c4ccncc4)cc4ncccc34)n2)CN(CC(F)(F)F)C1 [Example 172, [3-{3-[7-(pyridin-4-yl)-1,6-naphthyridin-5-yl]-1H-pyrazol-1-yl}-1-(2,2,2-trifluoroethyl)azetidin-3-yl]acetonitrile]
9 nM | 332 nM | 45 nM | 4170 nM |  |  |  |  | N#CC[C@]1(n2ncc(-c3cc(-c4cnn(CCO)c4)cc4ncccc34)n2)C[C@H](C#N)C1 [Example 326, trans-3-(cyanomethyl)-3-(4-{7-[1-(2-hydroxyethyl)-1H-pyrazol-4-yl]quinolin-5-yl}-2H-1,2,3-triazol-2-yl)cyclobutanecarbonitrile]
 |  |  |  | 126 nM | 1310 nM | 812 nM | > 10000 nM | N#CC[C@]1(n2cc(-c3cc(-c4cn[nH]c4)cc4nccn34)cn2)C[C@@H](C#N)C1 [Example 456, cis-3-(cyanomethyl)-3-{4-[7-(1H-pyrazol-4-yl)imidazo[1,2-a]pyridin-5-yl]-1H-pyrazol-1-yl}cyclobutanecarbonitrile]
130 nM | > 10000 nM | 973 nM | > 10000 nM |  |  |  |  | Cc1cc(-c2cc(-c3cnn(C4(CC#N)CN(S(C)(=O)=O)C4)n3)c3cccnc3c2)ccn1 [Example 356, [3-{4-[7-(2-methylpyridin-4-yl)quinolin-5-yl]-2H-1,2,3-triazol-2-yl}-1-(methylsulfonyl)azetidin-3-yl]acetonitrile]
197 nM | 1530 nM | 525 nM | > 10000 nM |  |  |  |  | CS(=O)(=O)N1CC(CC#N)(n2cc(-c3cc(-c4cn[nH]c4)cc4ncccc34)cn2)C1 [Example 289, [1-(methylsulfonyl)-3-{4-[7-(1H-pyrazol-4-yl)quinolin-5-yl]-1H-pyrazol-1-yl}azetidin-3-yl]acetonitrile]
424 nM | > 10000 nM | > 10000 nM | > 10000 nM |  |  |  |  | N#CC[C@]1(n2ccc(-c3nc(-c4ccnc(C(N)=O)n4)cc4ncccc34)n2)C[C@H](C#N)C1 [Example 244, 4-(5-{1-[cis-3-cyano-1-(cyanomethyl)cyclobutyl]-1H-pyrazol-3-yl}-1,6-naphthyridin-7-yl)pyrimidine-2-carboxamide]
14 nM | 255 nM | 174 nM | 9160 nM |  |  |  |  | N#CCC1(n2ncc(-c3cc(-c4cc(N)[nH]n4)cc4ncccc34)n2)CC(C#N)C1 (stereo not drawn) [Example 306, trans-3-{4-[7-(5-amino-1H-pyrazol-3-yl)quinolin-5-yl]-2H-1,2,3-triazol-2-yl}-3-(cyanomethyl)cyclobutanecarbonitrile]
26 nM | 654 nM | 396 nM | > 10000 nM |  |  |  |  | CO[C@H]1C[C@](CC#N)(n2ccc(-c3nc(-c4cc(N)[nH]n4)cc4ncccc34)n2)C1 [Example 53, (trans-1-{3-[7-(5-amino-1H-pyrazol-3-yl)-1,6-naphthyridin-5-yl]-1H-pyrazol-1-yl}-3-methoxycyclobutyl)acetonitrile]
45 nM | 843 nM | 436 nM | > 10000 nM |  |  |  |  | CS(=O)(=O)N1CC(CC#N)(n2ccc(-c3nc(-c4ccc(N)nc4)cc4ncccc34)n2)C1 [Example 194]
730 nM | 7300 nM | 4590 nM | > 10000 nM |  |  |  |  | CC(C)(O)[C@H]1C[C@@](CC#N)(n2ccc(-c3nc(-c4cc[nH]n4)cc4ncccc34)n2)C1 [Example 40, [cis-3-(2-hydroxpropan-2-yl)-1-{3-[7-(1H-pyrazol-3-yl)-1,6-naphthyridin-5-yl]-1H-pyrazol-1-yl}cyclobutyl]acetonitrile]
115 nM | 3700 nM | 740 nM | > 10000 nM |  |  |  |  | Cn1ncc(-c2cc(-c3cnn([C@]4(CC#N)C[C@H](C#N)C4)n3)c3cccnc3c2)c1N [Example 331, cis-3-{4-[7-(5-amino-1-methyl-1H-pyrazol-4-yl)quinolin-5-yl]-2H-1,2,3-triazol-2-yl}-3-(cyanomethyl)cyclobutanecarbonitrile]
5 nM | 12 nM | 6 nM | 735 nM |  |  |  |  | N#CC[C@]1(n2ccc(-c3nc(-c4c[nH]nc4N)cc4ncccc34)n2)C[C@@H](C#N)C1 [Example 97, cis-3-{3-[7-(3-amino-1H-pyrazol-4-yl)-1,6-naphthyridin-5-yl]-1H-pyrazol-1-yl}-3-(cyanomethyl)cyclobutanecarbonitrile]
725 nM | > 10000 nM | > 10000 nM | > 10000 nM |  |  |  |  | Cn1nccc1-c1cc(-c2cnn(C3(CC#N)CN(S(C)(=O)=O)C3)n2)c2cccnc2c1 [Example 310, [3-{4-[7-(1-methyl-1H-pyrazol-5-yl)quinolin-5-yl]-2H-1,2,3-triazol-2-yl}-1-(methylsulfonyl)azetidin-3-yl]acetonitrile]
52 nM | 586 nM | 207 nM | > 10000 nM |  |  |  |  | Cn1ncc(-c2cc3ncccc3c(-c3ccn(C4(CC#N)CN(S(C)(=O)=O)C4)n3)n2)c1N [Example 137, [3-{3-[7-(5-amino-1-methyl-1H-pyrazol-4-yl)-1,6-naphthyridin-5-yl]-1H-pyrazol-1-yl}-1-(methylsulfonyl)azetidin-3-yl]acetonitrile]
573 nM | 3220 nM | 2970 nM | > 10000 nM |  |  |  |  | C[C@]1(C#N)C[C@](CC#N)(n2ccc(-c3nc(-c4ccnc(N)c4)cc4ncccc34)n2)C1 [Example 200, trans-3-{3-[7-(2-aminopyridin-4-yl)-1,6-naphthyridin-5-yl]-1H-pyrazol-1-yl}-3-(cyanomethyl)-1-methylcyclobutanecarbonitrile]
57 nM | 2950 nM | 843 nM | > 10000 nM |  |  |  |  | Cc1cc(-c2nc(-c3ccn[nH]3)cc3ncccc23)nn1C1(CC#N)CN(S(C)(=O)=O)C1 [Example 267, [3-{5-methyl-3-[7-(1H-pyrazol-5-yl)-1,6-naphthyridin-5-yl]-1H-pyrazol-1-yl}-1-(methylsulfonyl)azetidin-3-yl]acetonitrile]
50 nM | 2530 nM | 479 nM | > 10000 nM |  |  |  |  | CS(=O)(=O)c1ccc(-c2cc3ncccc3c(-c3ccn(C4(CC#N)CN(S(C)(=O)=O)C4)n3)n2)cn1 [Example 206, [1-(methylsulfonyl)-3-(3-{7-[6-(methylsulfonyl)pyridin-3-yl]-1,6-naphthyridin-5-yl}-1H-pyrazol-1-yl)azetidin-3-yl]acetonitrile]
 |  |  |  | 23 nM | 728 nM | 82 nM | 9360 nM | Cc1nc2ccc(-c3cc(-c4cnn([C@]5(CC#N)C[C@H](C#N)C5)n4)c4cccnc4c3)nc2[nH]1 [Example 424, cis-3-(cyanomethyl)-3-{4-[7-(2-methyl-3H-imidazo[4,5-b]pyridin-5-yl)quinolin-5-yl]-2H-1,2,3-triazol-2-yl}cyclobutanecarbonitrile]
 |  |  |  | 1370 nM | > 10000 nM | 3530 nM | > 10000 nM | Cn1cc(-c2cc3nccnc3c(-c3ccn(C4(CC#N)CN(CC#N)C4)n3)n2)cn1 [Example 481]
249 nM | 3810 nM | 1860 nM | > 10000 nM |  |  |  |  | N#CC[C@]1(n2ncc(-c3cc(-c4cc(CO)ns4)cc4ncccc34)n2)C[C@H](C#N)C1 [Example 345, trans-3-(cyanomethyl)-3-(4-{7-[3-(hydroxymethyl)-1,2-thiazol-5-yl]quinolin-5-yl}-2H-1,2,3-triazol-2-yl)cyclobutanecarbonitrile]
 |  |  |  | 55 nM | 3700 nM | 369 nM | > 10000 nM | N#CC[C@]1(n2ncc(-c3cc(-c4ccc(N)nn4)cc4ncccc34)n2)C[C@H](C#N)C1 [Example 401, trans-3-{4-[7-(6-aminopyridazin-3-yl)quinolin-5-yl]-2H-1,2,3-triazol-2-yl}-3-(cyanomethyl)cyclobutanecarbonitrile]
38 nM | 2700 nM | 562 nM | > 10000 nM |  |  |  |  | Cc1ccc(-c2cc3ncccc3c(-c3ccn(C4(CC#N)CN(S(C)(=O)=O)C4)n3)n2)c(N)n1 [Example 218, [3-{3-[7-(2-amino-6-methylpyridin-3-yl)-1,6-naphthyridin-5-yl]-1H-pyrazol-1-yl}-1-(methylsulfonyl)azetidin-3-yl]acetonitrile]

Structure (SMILES) | IC50 [1] | IC50 [2] | IC50 [3] | IC50 [4] | IC50 ([1]; JAK Caliper enzyme assay) | IC50 ([2]; JAK Caliper enzyme assay) | IC50 ([3]; JAK Caliper enzyme assay) | IC50 ([4]; JAK Caliper enzyme assay)
N#CCC1(n2ncc(-c3cc(-c4cc(C(N)=O)ccn4)cc4ncccc34)n2)CC(C#N)C1 (stereo not drawn) [Example 353, 2-(5-{2-[cis-3-cyano-1-(cyanomethyl)cyclobutyl]-2H-1,2,3-triazol-4-yl}quinolin-7-yl)pyridine-4-carboxamide] | 1570 nM | 9630 nM | > 10000 nM | > 10000 nM |  |  |  | 
